Cytotoxicity data for 105 compounds are collected here from ChEMBL document CHEMBL3507680, “University of Dundee, Gates Library screen for HepG2 cell viability”.

Each structure is given as a SMILES string.

This series is described as follows: Human HepG2 cell viability assay in 384 well format. The class given is toxicity, cell-based. Also noted: dose 125 nL, time 70.5 hour; cytotoxicity at 70.5 h: concentration not given beside the values. The following applies: HepG2 cells, read-out: Inhibition.

`COCCOCC(=O)Nc1ccc(C)cc1Cl`: the cytotoxicity at 70.5 h is -0.473%.
As for `O=C(C1CC=CC1)N1CCC2(CC1)OCCO2`, the figure is -4.94%; as for `CCn1cnnc1C1CCN(C(=O)c2ccc(OC(C)C)nc2)CC1`, 5.53%; as for `CCCc1nc(C)c(C(=O)Nc2cccc(C)n2)s1`, 23.8%.
In the case of `CC(C)c1ncc(C(=O)N2CCOCC2CC(=O)c2ccco2)s1` (stereo not given), the cytotoxicity at 70.5 h was -2.34%.
`COCCN1C(=O)CC(N2CCN(c3ccccc3)CC2)C1=O` (stereo not given): the cytotoxicity at 70.5 h is -3.99%.
Consider `CCOc1ncccc1NC(=O)c1ccc(C)s1`, for which the cytotoxicity at 70.5 h is -7.78%.
For `Fc1ccc(C2CCCN2Cc2nnnn2C2CC2)cc1` (stereo not given), the cytotoxicity at 70.5 h was 28.2%.
In the case of `CC1CN(C(=O)Nc2cccc(CN3CCOC3=O)c2)CCO1` (stereo not given) it was -9.66%.
In the case of `O=C(Nc1cccc(CN2CCOC2=O)c1)N1CCCC1` it was -6.57%.
Regarding `CC1CCCN(C(=O)Nc2cccc(CN3CCOC3=O)c2)C1` (stereo not given), the cytotoxicity at 70.5 h came to 35.6%.
In the case of `CC(C)NC(=O)c1nnn(-c2ccccc2)c1C1CC1` it was -6.4%; in that of `O=C(NC1CC1)c1nnn(-c2cccc(C(F)(F)F)c2)c1C1CC1`, -8.39%.
As for `CCN1CCC(NC(=O)c2ccc(F)cc2I)CC1`, the figure is -7.1%; as for `Cc1cccc(CNC(=O)Nc2cc(C(F)(F)F)c[nH]c2=O)n1`, -6.24%.
Consider `NC(=O)COc1ccc(CNCc2c(F)cccc2F)cc1`, for which the cytotoxicity at 70.5 h is -3.08%.
Take `CCc1nnc2n1CCN(C(=O)c1ccc3[nH]nnc3c1)C2`: the cytotoxicity at 70.5 h was -8.74%.
Turning to `CCc1nnc2n1CCN(C(=O)c1ccc3c(c1)[nH]c(=O)n3C)C2`, the cytotoxicity at 70.5 h was -2.36%.
Consider `Cc1nc2ccc(C(=O)N3CCn4c(C)nnc4C3)cc2nc1C`, for which the cytotoxicity at 70.5 h was -5.63%.
As for `Cc1cccc(-c2noc(CNC(C)Cn3cc(C)cn3)n2)c1` (stereo not given), the figure is -0.846%; as for `CCc1nnc2n1CCN(C(=O)c1ccc3c(c1)nnn3C)C2`, -0.825%; as for `Cc1cnn(CC(C)NCc2nc(-c3ccoc3)no2)c1` (stereo not given), 38.1%.
`Cc1n[nH]c(C)c1NC(=O)CN1CCCC1Cn1cncn1` (stereo not given): the cytotoxicity at 70.5 h was -0.918%.
As for `COc1cccc(CNCCc2cc(F)cc3c2OCOC3)c1OC`, the figure is 5.71%; as for `CN(C)c1cccc(C2CCCN2Cc2nnnn2C2CC2)c1` (stereo not given), -1.65%.
In the case of `COc1cc(CNCCc2cc(F)cc3c2OCOC3)cc(OC)c1` it was 1.52%.
For `O=C(Nc1cccc(CN2CCOC2=O)c1)N1CCCCCC1`, the cytotoxicity at 70.5 h turned out to be 35.8%.
On to `CCC(=O)N1CCCC1c1ccsc1` (stereo not given), for which the cytotoxicity at 70.5 h is -5.78%.
Take `Cc1nc(C)n(CC2CCCN(CC(=O)Nc3cccnc3)C2)n1` (stereo not given): the cytotoxicity at 70.5 h is -0.663%.
As for `O=C(CN1CCCC1Cn1cncn1)NCC1(c2ccccc2)CC1` (stereo not given), the cytotoxicity at 70.5 h is -5.75%.
In the case of `CC(Cn1cccn1)NCc1nc(-c2cccnc2)no1` (stereo not given) it was -3.96%.
In the case of `Cc1nc(-c2ccsc2)ccc1C(=O)N(C)CC1CC1` it was -7.16%.
As to `CCCc1n[nH]c(C2CN(C(=O)CCn3cc(C)cn3)CCO2)n1` (stereo not given), the cytotoxicity at 70.5 h turned out to be 4.48%.
In the case of `CS(=O)(=O)c1ccc(C(=O)N2CCCC(n3cncn3)C2)o1` (stereo not given) it was 21.1%.
As to `CCc1cnc(CN(C)C2CCN(CCCNS(C)(=O)=O)C2)o1` (stereo not given), the cytotoxicity at 70.5 h is -2.35%.
As for `CS(=O)(=O)Cc1ccc(C(=O)N2CCCC(n3cncn3)C2)o1` (stereo not given), the cytotoxicity at 70.5 h was found to be 1.66%.
In the case of `COc1ccc(C2CCCN2S(=O)(=O)N(C)C)cc1` (stereo not given) it was -6.59%; in that of `CCCOc1ccc(Cl)cc1NC(=O)NCCC(=O)N(C)C`, 4.12%; in that of `CCCOc1cc(C)ccc1NC(=O)NCCNC(C)=O`, 3.53%.
As for `CCOc1ccccc1NC(=O)N(CCO)Cc1ccsc1`, the figure is 2.23%; as for `CC(C)(C(=O)NCC(=O)N1CCCC1)c1ccccc1F`, 3.99%; as for `CC(C)c1ncncc1C(=O)NCCN1CCCCCC1`, -0.207%.
On to `CC(C)c1nnc2n1CC(CNCc1ccsc1)CC2` (stereo not given), for which the cytotoxicity at 70.5 h was 2.53%.
In the case of `CC(C)N(CCC#N)C(=O)c1cnc(-c2ccc3c(c2)OCO3)s1` it was -0.296%; in that of `O=C(CCc1ccsc1)NC1CCN(c2cccc(F)c2)CC1`, 4.39%.
For `CCCc1ccc(S(=O)(=O)NC(=O)CCc2cscn2)cc1`, the cytotoxicity at 70.5 h is 4.19%.
In the case of `O=C(CCc1ccc(Cl)cc1)NC1CCN(c2cccc(F)c2)CC1` it was 10.5%; in that of `CC(C)c1ncncc1C(=O)NCCN1CCCCC1C` (stereo not given), -1.51%.
As for `Cc1nn(C)c(N2CCOCC2)c1CNCc1cccnc1`, the cytotoxicity at 70.5 h was found to be 24.7%.
In the case of `Cc1ccc(-c2n[nH]cc2CNCCn2cccn2)o1` it was 2.17%; in that of `CCc1sc(C(=O)Nc2cnn(CCN(C)C)c2)cc1C`, -17.9%; in that of `O=C(c1ccc(N2CCCC2)nn1)N1CCCc2cc(F)c(F)cc21`, -1.17%.
In the case of `O=C(c1ccc(N2CCCC2)nn1)N1CCCc2ccc(F)cc21` it was 8.25%; in that of `COc1ccc(-c2noc(C3CCS(=O)(=O)C3)n2)cc1OC` (stereo not given), -10.7%.
As for `COCC(=O)NC(c1ccc(Cl)cc1)C(F)(F)F` (stereo not given), the figure is -12.5%; as for `Cc1cc(CS(=O)(=O)N(C)C(C)c2ccc(F)cc2)on1` (stereo not given), -7.52%; as for `O=C(CNC(=O)N(Cc1ccoc1)C1CCCCC1)N1CCCC1`, -7.2%.
Consider `CCc1nc(CNc2ccc(C(=O)NCc3ccco3)cc2C)no1`, for which the cytotoxicity at 70.5 h is -9.99%.
As for `Cc1cnc(CNc2ccc(C(=O)NCc3ccco3)cc2C)o1`, the figure is 6.63%; as for `CC(NCCCC#N)c1ccc(-c2ccncc2)cc1` (stereo not given), 14.3%; as for `O=C(NCC1(c2ccc(F)cc2)CCC1)N1CCC2(CCOCC2)C1`, 7.66%.
For `Cc1nnc(CN(Cc2ccccc2Br)C2CC2)o1`, the cytotoxicity at 70.5 h was -8.83%.
With `Cc1nnc(CN(Cc2ccccc2C(F)(F)F)C2CC2)o1`, the cytotoxicity at 70.5 h was -10.9%.
For `Cc1nnc(CN(Cc2ccccc2Cl)C2CCCC2)o1`, the cytotoxicity at 70.5 h is -5.33%.
For the compound `CCc1cnc(CNc2ccc(C(=O)NCc3ccco3)cc2C)o1`, the cytotoxicity at 70.5 h was -8.92%.
Regarding `Cc1ccccc1-n1cnc(Cl)c1C(=O)O`, the cytotoxicity at 70.5 h was -8.21%.
As for `O=C(O)c1ccnc(SCc2ccccc2)c1`, the figure is 32.7%; as for `Cc1ccc(-c2nc(CSCCC(=O)NC(N)=O)co2)cc1`, -11.4%; as for `O=C1CC(N(C(=O)CCc2c[nH]c3ccccc23)C2CC2)C(=O)N1` (stereo not given), -14.1%.
Take `Cc1nnc(C(C)N2CCc3[nH]c4ccc(Cl)cc4c3C2)o1` (stereo not given): the cytotoxicity at 70.5 h was -4.39%.
In the case of `Cc1nnc(C(C)N2CCc3[nH]c4ccccc4c3C2)o1` (stereo not given) it was -4.16%.
With `O=C(O)c1c(Cl)ncn1-c1cccc2ccccc12`, the cytotoxicity at 70.5 h was -4.51%.
With `O=C(NC1CCN(c2ccccc2Br)C1)c1c[nH]nn1` (stereo not given), the cytotoxicity at 70.5 h is -6.49%.
In the case of `O=C(O)c1cccn1-c1ccc2c(c1)OCCO2` it was -9.54%; in that of `Clc1cc(Cl)cc(OCCN2CCC(n3cncn3)CC2)c1`, -0.108%; in that of `CC(C)N1CCN(C(=O)c2ccccc2NCc2cccnc2)CC1`, -5.19%.
Turning to `Cc1cc(=O)c(C(=O)N2CCN(C)c3ccccc3C2)c[nH]1`, the cytotoxicity at 70.5 h was -9.5%.
For `CC(C)(CO)CCCNC(=O)NC1(c2cccc(F)c2)CC1`, the cytotoxicity at 70.5 h is -8.07%.
As for `CCC1CN(C)c2ccccc2CN1C(=O)c1c[nH]c(=O)cc1C` (stereo not given), the figure is -11.3%.
Take `O=C(O)c1c(Cl)ncn1-c1ccccc1`: the cytotoxicity at 70.5 h is -9.78%.
As to `CS(=O)(=O)CCCN(CCc1cccc(F)c1)C1CC1`, the cytotoxicity at 70.5 h amounted to 21.4%.
As for `Cc1cccc(C)c1OCCCN1CCC(n2cncn2)CC1`, the cytotoxicity at 70.5 h amounted to 3.77%.
As for `O=C(NC1CCN(c2ccccc2OC(F)F)C1)c1c[nH]nn1` (stereo not given), the figure is -10.2%; as for `CC1(C)CN=C(N2CCN(CC3CCCO3)CC2)S1` (stereo not given), -7.36%.
As to `CCc1nc(CNC(C)(CO)C2CCCCC2)no1` (stereo not given), the cytotoxicity at 70.5 h was determined as 15.6%.
As for `COc1ccc(N(Cc2ccco2)C(=O)COC(C)C)cc1F`, the figure is -7.47%; as for `COc1c(CNC(C)C(=O)NC2CCCC2)c(C(C)C)nn1C` (stereo not given), -6.92%.
As for `Clc1ccc(-c2cnc(CNC3CCc4ncnn4C3)o2)cc1` (stereo not given), the cytotoxicity at 70.5 h was -12.9%.
`CCCN(CC(F)F)c1cc(COC)nc2ncnn12`: the cytotoxicity at 70.5 h is -9.58%.
`COCc1cc(N(Cc2ccsc2)C2CC2)n2ncnc2n1`: the cytotoxicity at 70.5 h was -6.87%.
For `Cc1cc(C(=O)Nc2nnn[nH]2)ccc1I`, the cytotoxicity at 70.5 h was -5.12%.
In the case of `CCC(C)(N)c1nc(=O)c(C)c(C)[nH]1` (stereo not given) it was -7.88%; in that of `CC(NC(=O)N1CCC(CO)CC1)c1csc2ccccc12` (stereo not given), -1.97%.
As for `O=C(CN1CCOc2ccc(Cl)cc21)NCCCn1cccn1`, the cytotoxicity at 70.5 h was 9.56%.
For the compound `CN(Cc1nnc(-c2ccco2)o1)Cc1nc2c(s1)CCCC2`, the cytotoxicity at 70.5 h is -11.2%.
With `O=C(O)c1csc(S(=O)(=O)N2CCCc3cccc(OC(F)F)c32)c1`, the cytotoxicity at 70.5 h was -5.21%.
As for `OCC(CO)Nc1ccc2ccc(Cl)c(Cl)c2n1`, the figure is 19.4%.
Consider `Cc1cccc(S(=O)(=O)NCC(C)(C)CC(C)O)c1C#N` (stereo not given), for which the cytotoxicity at 70.5 h is -6.31%.
For the compound `CC(O)CC(C)(C)CNS(=O)(=O)c1cccc(Cl)c1C#N` (stereo not given), the cytotoxicity at 70.5 h is -10%.
As for `CCN(C(=O)CNC1CCc2ncnn2C1)C1=CCCCC1` (stereo not given), the cytotoxicity at 70.5 h was 4.5%.
As for `O=C(NCCCC(=O)N1CCN(CC2CC2)c2ccccc21)C1CC1`, the figure is -7.6%; as for `NC(=O)COc1ccc(CNCc2ccc(F)cc2)cc1`, -4.15%.
In the case of `NC(=O)COc1ccc(CNCc2cc(F)cc(F)c2)cc1` it was -8.73%; in that of `CCc1c(C)[nH]c(C(C)(N)CC)nc1=O` (stereo not given), -10.4%.
As for `CCc1c(C)[nH]c(C(C)(C)N)nc1=O`, the figure is -7.1%.
